Data taken from the supplement of paper PMC10307832.

Tests used:
Assay in all cases: relative viability (nuclei count vs DMSO), 5 days (fraction); higher = more cells survive
NCI-H441 = test system: NCI-H441
How it was run: (§1)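 Each reported value is a median over duplicate plates. It expresses relative viability: treated-well nuclei count divided by vehicle-well nuclei count. Lung cancer cell lines in 1536-well plates were dosed by pin tool a day after seeding, alone with one drug or with a fixed anchor-drug dose plus five library-drug doses (not always all listed) in √10 steps, and nuclei were counted after 5 days.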

NCI-H1734 = test system: NCI-H1734
How it was run: as §1

ChaGo-K-1 = test system: ChaGo-K-1
How it was run: as §1

NCI-H1755 = test system: NCI-H1755
How it was run: as §1

NCI-H23 = test system: NCI-H23
How it was run: as §1

LOU-NH91 = test system: LOU-NH91
How it was run: as §1

NCI-H1792 = test system: NCI-H1792
How it was run: as §1

COR-L 105 = test system: COR-L 105
How it was run: as §1

EMC-BAC-2 = test system: EMC-BAC-2
How it was run: as §1

EKVX = test system: EKVX
How it was run: as §1

H3255 = test system: H3255
How it was run: as §1

PC-3 [JPC-3] = test system: PC-3 [JPC-3]
How it was run: as §1

NCI-H1975 = test system: NCI-H1975
How it was run: as §1

NCI-H1563 = test system: NCI-H1563
How it was run: as §1

NCI-H520 = test system: NCI-H520
How it was run: as §1

A-427 = test system: A-427
How it was run: as §1

NCI-H1666 = test system: NCI-H1666
How it was run: as §1

NCI-H596 = test system: NCI-H596
How it was run: as §1

HCC-366 = test system: HCC-366
How it was run: as §1

`C=C1C(=O)O[C@@H](CCCCCCCC)[C@@H]1C(=O)O` [C-75] + CC(C)C[C@H](NC(=O)[C@H](Cc1ccccc1)NC(=O)c1cnccn1)B(O)O [Bortezomib] (partner 0.002 µM) gave a relative viability (NCI-H441; first compound 0.08 µM) of 0.497, a relative viability (NCI-H441; first compound 0.253 µM) of 0.259 and a relative viability (NCI-H441; first compound 0.8 µM) of 0.447. It also gave a relative viability (NCI-H441; first compound 2.53 µM) of 0.315, a relative viability (NCI-H441; first compound 8 µM) of 0.26 and a relative viability (NCI-H1734; first compound 0.08 µM) of 1.13. It also gave a relative viability (NCI-H1734; first compound 0.253 µM) of 0.934, a relative viability (NCI-H1734; first compound 0.8 µM) of 0.886 and a relative viability (NCI-H1734; first compound 2.53 µM) of 0.812. The relative viability (NCI-H1734; first compound 8 µM) was 0.785, the relative viability (ChaGo-K-1; first compound 0.08 µM) was 0.927 and the relative viability (ChaGo-K-1; first compound 0.253 µM) was 0.944. It also gave a relative viability (ChaGo-K-1; first compound 0.8 µM) of 0.894, a relative viability (ChaGo-K-1; first compound 2.53 µM) of 0.872 and a relative viability (ChaGo-K-1; first compound 8 µM) of 0.96. The relative viability (NCI-H1755; first compound 0.08 µM) was 0.985, the relative viability (NCI-H1755; first compound 0.253 µM) was 0.96 and the relative viability (NCI-H1755; first compound 0.8 µM) was 0.925. The relative viability (NCI-H1755; first compound 2.53 µM) was 0.805, the relative viability (NCI-H1755; first compound 8 µM) was 0.957 and the relative viability (NCI-H23; first compound 0.08 µM) was 0.953. It also gave a relative viability (NCI-H23; first compound 0.253 µM) of 1.07, a relative viability (NCI-H23; first compound 0.8 µM) of 0.962 and a relative viability (NCI-H23; first compound 2.53 µM) of 0.865. For the same compound, the relative viability (NCI-H23; first compound 8 µM) was 0.696, the relative viability (LOU-NH91; first compound 0.08 µM) was 0.47 and the relative viability (LOU-NH91; first compound 0.253 µM) was 0.495. For the same compound, the relative viability (LOU-NH91; first compound 0.8 µM) was 0.454, the relative viability (LOU-NH91; first compound 2.53 µM) was 0.346 and the relative viability (LOU-NH91; first compound 8 µM) was 0.394. The relative viability (NCI-H1792; first compound 0.08 µM) was 0.979, the relative viability (NCI-H1792; first compound 0.253 µM) was 0.881 and the relative viability (NCI-H1792; first compound 0.8 µM) was 0.845. It also gave a relative viability (NCI-H1792; first compound 2.53 µM) of 0.295, a relative viability (NCI-H1792; first compound 8 µM) of 0.886 and a relative viability (COR-L 105; first compound 0.08 µM) of 0.838. It also gave a relative viability (COR-L 105; first compound 0.253 µM) of 0.627, a relative viability (COR-L 105; first compound 0.8 µM) of 0.779 and a relative viability (COR-L 105; first compound 2.53 µM) of 0.809. The relative viability (COR-L 105; first compound 8 µM) was 0.728, the relative viability (EMC-BAC-2; first compound 0.08 µM) was 1.1 and the relative viability (EMC-BAC-2; first compound 0.253 µM) was 1.05. The relative viability (EMC-BAC-2; first compound 0.8 µM) was 1.11, the relative viability (EMC-BAC-2; first compound 2.53 µM) was 0.914 and the relative viability (EMC-BAC-2; first compound 8 µM) was 1.13. It also gave a relative viability (EKVX; first compound 0.08 µM) of 0.996, a relative viability (EKVX; first compound 0.253 µM) of 1.09 and a relative viability (EKVX; first compound 0.8 µM) of 1.17. The relative viability (EKVX; first compound 2.53 µM) was 0.947, the relative viability (EKVX; first compound 8 µM) was 1.01 and the relative viability (H3255; first compound 0.08 µM) was 0.841. The relative viability (H3255; first compound 0.253 µM) was 0.811, the relative viability (H3255; first compound 0.8 µM) was 0.715 and the relative viability (H3255; first compound 2.53 µM) was 0.799. The relative viability (H3255; first compound 8 µM) was 0.8, the relative viability (PC-3 [JPC-3]; first compound 0.08 µM) was 0.826 and the relative viability (PC-3 [JPC-3]; first compound 0.253 µM) was 0.839. The relative viability (PC-3 [JPC-3]; first compound 0.8 µM) was 0.826, the relative viability (PC-3 [JPC-3]; first compound 2.53 µM) was 0.581 and the relative viability (PC-3 [JPC-3]; first compound 8 µM) was 0.836. It also gave a relative viability (NCI-H1975; first compound 0.08 µM) of 0.332, a relative viability (NCI-H1975; first compound 0.253 µM) of 0.395 and a relative viability (NCI-H1975; first compound 0.8 µM) of 0.4. It also gave a relative viability (NCI-H1975; first compound 2.53 µM) of 0.283, a relative viability (NCI-H1975; first compound 8 µM) of 0.361 and a relative viability (NCI-H1563; first compound 0.08 µM) of 0.855. It also gave a relative viability (NCI-H1563; first compound 0.253 µM) of 1.1, a relative viability (NCI-H1563; first compound 0.8 µM) of 0.963 and a relative viability (NCI-H1563; first compound 2.53 µM) of 0.763. For the same compound, the relative viability (NCI-H1563; first compound 8 µM) was 0.906, the relative viability (NCI-H520; first compound 0.08 µM) was 0.442 and the relative viability (NCI-H520; first compound 0.253 µM) was 0.425. For the same compound, the relative viability (NCI-H520; first compound 0.8 µM) was 0.578, the relative viability (NCI-H520; first compound 2.53 µM) was 0.337 and the relative viability (NCI-H520; first compound 8 µM) was 0.58. The relative viability (A-427; first compound 0.08 µM) was 1.01, the relative viability (A-427; first compound 0.253 µM) was 0.988 and the relative viability (A-427; first compound 0.8 µM) was 1.02. The relative viability (A-427; first compound 2.53 µM) was 0.78, the relative viability (A-427; first compound 8 µM) was 1.12 and the relative viability (NCI-H1666; first compound 0.08 µM) was 0.888. For the same compound, the relative viability (NCI-H1666; first compound 0.253 µM) was 0.948, the relative viability (NCI-H1666; first compound 0.8 µM) was 0.7 and the relative viability (NCI-H1666; first compound 2.53 µM) was 0.7. For the same compound, the relative viability (NCI-H1666; first compound 8 µM) was 0.641, the relative viability (NCI-H596; first compound 0.08 µM) was 1.18 and the relative viability (NCI-H596; first compound 0.253 µM) was 1.18. For the same compound, the relative viability (NCI-H596; first compound 0.8 µM) was 0.871, the relative viability (NCI-H596; first compound 2.53 µM) was 0.996 and the relative viability (NCI-H596; first compound 8 µM) was 0.988. For the same compound, the relative viability (HCC-366; first compound 0.08 µM) was 1.07, the relative viability (HCC-366; first compound 0.253 µM) was 1.16 and the relative viability (HCC-366; first compound 0.8 µM) was 0.973. The relative viability (HCC-366; first compound 8 µM) was 0.941.
